Laboratory results published in US10543216B2, “Modus of administration of iron, and new formulations adapted for the said goal” (BIOFER S.P.A., priority 2013, dated 2020).
Like-named read-outs stand apart in the source and are kept apart here.

How the values were obtained:
[1] = tested on: Pig esophageal epithelium; experiment: in vitro permeation in the Franz cell (model of sublingual absorption); details: FIG. 2
Protocol: Sublingual absorption of Fe++ compounds was evaluated by means of in vitro permeation experiments using the Franz cell exemplified in FIG. 1. Pig esophageal epithelium was used as membrane. This experimental model is recognized as valid and reliable in the assessment of sublingual absorption of drugs [I. Diaz Del Consuelo, G. P. Pizzolato, F. Falsom, R. H. Guy, and Y. Jacques.: Evaluation of pig esophageal mucosa as a permeability barrier model for buccosal tissue. J. Pharm. […] Arch. […] Membrane preparation occurred by following the method described here. The esophagi were taken from the animals within one hour after sacrifice. The mucosa was separated from the muscle tissue with a lancet. To separate the epithelium, the mucosa was immersed in distilled water at 60° C. for 2 minutes and then the epithelium was removed from the underlying tissue with the aid of a spatula. The tissues thus prepared were stored at −20° C. until the time of use, when they were thawed to room temperature before being mounted on the vertical diffusion cells of the Franz type, a schematic view of which is shown in FIG. 1. The esophageal epithelium was placed on a regenerated cellulose filter (pore diameter 0.45 μm) with the luminal side facing up, and mounted between the donor and receptor compartments of the Franz cells. […] The exposed surface was 0.6 cm^2. The receptor compartment was filled with approximately 4 ml of physiological solution (0.9% NaCl w/v) and kept under constant magnetic agitation for the entire duration of the experiment. The entire system was thermostat-controlled at 37° C. Sampling of the receptor compartment was performed by drawing 200 μl of receptor solution, which were replaced immediately with an equal volume of fresh physiological solution. The samples were taken at preset time intervals, specifically at 0, 1, 2, 3, 4, 5 and 6 hours.
4 g of powder were suspended in 10 ml of physiological solution and left under agitation for 15 minutes, then the solution was filtered with regenerated cellulose filters (pore diameter 0.45 μm).
6 g of powder were suspended in 10 ml of physiological solution. The suspension was left under magnetic agitation for 25 minutes and then filtered with regenerated cellulose filters (pore diameter 0.45 μm).
7 g of powder were suspended in 6 ml of physiological solution. The suspension was left under magnetic agitation for 1 hour; at the end it was filtered with regenerated cellulose filters (pore diameter 0.45 μm).
An excess of ascorbic acid (2 g) was added to the solution. The suspension was left under magnetic agitation for 30 minutes and after filtration through regenerated cellulose filters (pore diameter 0.45 μm) was used as it was.
4 g of powder were suspended in 10 ml of physiological solution. The suspension was left under magnetic agitation for 15 hours, at the end of which it was filtered with regenerated cellulose filters (pore diameter 0.45 μm).
An excess of powder was suspended in 10 ml of physiological solution. The suspension was left under magnetic agitation for 15 hours, at the end of which it was filtered with regenerated cellulose filters (pore diameter 0.45 μm).

[2] = randomized clinical study, sublingual administration of 30 mg of Fe2+ to healthy volunteers; format: in vivo, human; details: for Serum Fe / Transferrin saturation / Total iron / NTBI (free non transferrin bound iron): 30 mg Fe2+ sublingual (6 sachets of example 6), fasting healthy volunteers n=2, average; for Total iron / NTBI (free non transferrin bound iron): ICP-MS; for NTBI (free non transferrin bound iron): ultrafiltration
Protocol: The participants were hospitalized for two days prior to administration until the next day and were under medical observation.
The samples were then analyzed with respect to the trend of (average) concentrations of various indicators over time.
Total iron measured in micrograms/dl (ICP-MS)
Free iron by ultrafiltration measured in micromoles/liter (=NTBI) (ICP-MS)
Total iron binding capacity (TIBC) measured in micrograms/dl (column separation, Vitros analyzer)
Transferrin saturation (PTS) measured in %
Serum iron (SI), measured in micrograms/dl, colorimetric method (Vitros analyzer)

[3] = 100 mg of Fe2+ orally, healthy volunteers, Dresow et al., FIG. 5, cited from earlier work

ferrous ascorbate [Fe++ ascorbate]
permeated divalent Fe ([1]; 50 mg/ml solution, in the presence of ascorbic acid, pH 2.6, after 3 hours): above 150 micrograms/square centimeter
permeated divalent Fe ([1]; 50 mg/ml solution, in the presence of ascorbic acid, pH 2.6, after 4 hours): approximately 200 micrograms/square centimeter
permeated divalent Fe ([1]; 350 mg/ml solution, in the presence of ascorbic acid, pH 4.4, after 3 hours): below 150 micrograms/square centimeter
permeated divalent Fe ([1]; 350 mg/ml solution, in the presence of ascorbic acid, pH 4.4, after 4 hours): approximately 200 micrograms/square centimeter
permeated divalent Fe ([1]; 400 mg/ml solution, in the absence of ascorbic acid, pH 4.4, after 3 hours): above 100 micrograms/square centimeter
permeated divalent Fe ([1]; 400 mg/ml solution, in the absence of ascorbic acid, pH 4.4, after 6 hours): approximately 150 micrograms/square centimeter
permeated divalent Fe ([1]; 600 mg/ml solution, in the absence of ascorbic acid, pH 4.4, after 3 hours): above 100 micrograms/square centimeter
permeated divalent Fe ([1]; 600 mg/ml solution, in the absence of ascorbic acid, pH 4.4, after 6 hours): approximately 125 micrograms/square centimeter
permeated divalent Fe ([1]; 1000 mg/ml solution, in the absence of ascorbic acid, pH 4.4, after 3 hours): approximately 50 micrograms/square centimeter
permeated divalent Fe ([1]; 1000 mg/ml solution, in the absence of ascorbic acid, pH 4.4, after 5 hours): approximately 100 micrograms/square centimeter
Serum Fe ([2]; time 0 h): 0 µg/dL
Transferrin saturation ([2]; time 0 min (at administration)): ~24%
Serum Fe ([2]; time 0.033 h): 5.5 µg/dL
Transferrin saturation ([2]; time 2 min): 28%
Serum Fe ([2]; time 0.100 h): 7 µg/dL
Transferrin saturation ([2]; time 6 min): 28%
Serum Fe ([2]; time 0.200 h): 6 µg/dL
Transferrin saturation ([2]; time 12 min): 28.5%
Serum Fe ([2]; time 0.330 h): 10 µg/dL
Transferrin saturation ([2]; time 20 min): 26.5%
Serum Fe ([2]; time 0.500 h): 24 µg/dL
Transferrin saturation ([2]; time 30 min): 36%
Serum Fe ([2]; time 0.750 h): 51.5 µg/dL
Transferrin saturation ([2]; time 45 min): 40.5%
Serum Fe ([2]; time 1.000 h): 72 µg/dL
Transferrin saturation ([2]; time 60 min): 50%
Serum Fe ([2]; time 1.250 h): 91 µg/dL
Transferrin saturation ([2]; time 75 min): 51.5%
Serum Fe ([2]; time 1.500 h): 110.5 µg/dL
Transferrin saturation ([2]; time 90 min): 60%
Serum Fe ([2]; time 1.750 h): 118.5 µg/dL
Transferrin saturation ([2]; time 105 min): 49.5%
Serum Fe ([2]; time 2.000 h): 129 µg/dL
Transferrin saturation ([2]; time 120 min (2 hours), listed as Fe2+ (as ascorbate)): 65.5%
Transferrin saturation ([2]; time 120 min (2 hours), listed as Fe2+ Ascorbate): 66.5%
increase in transferrin saturation (PTS) ([2]; 30 mg of Fe2+ sublingual, healthy volunteers, after 2 hours versus time of administration): 42.5%
free iron (NTBI) ([2]; 30 mg of Fe2+ sublingual, healthy volunteers, after 2 hours, from 0): 0.34 µmol/L
Total iron ([2]; time 0.00 h): 0 µg/dL
Total iron ([2]; time 0.03 h): -7.4 µg/dL
Total iron ([2]; time 0.10 h): 6.2 µg/dL
Total iron ([2]; time 0.20 h): -13.54 µg/dL
Total iron ([2]; time 0.33 h): 5.95 µg/dL
Total iron ([2]; time 0.50 h): 6.37 µg/dL
Total iron ([2]; time 0.75 h): 41.58 µg/dL
Total iron ([2]; time 1.00 h): 51.01 µg/dL
Total iron ([2]; time 1.25 h): 80.17 µg/dL
Total iron ([2]; time 1.50 h): 90.15 µg/dL
Total iron ([2]; time 1.75 h): 95.7 µg/dL
Total iron ([2]; time 2.00 h): 110.94 µg/dL
NTBI (free non transferrin bound iron) ([2]; time 0 min): 0.000 µmol/L
NTBI (free non transferrin bound iron) ([2]; time 2 min): -0.306 µmol/L
NTBI (free non transferrin bound iron) ([2]; time 6 min): -0.215 µmol/L
NTBI (free non transferrin bound iron) ([2]; time 12 min): 0.029 µmol/L
NTBI (free non transferrin bound iron) ([2]; time 20 min): 0.067 µmol/L
NTBI (free non transferrin bound iron) ([2]; time 30 min): 0.106 µmol/L
NTBI (free non transferrin bound iron) ([2]; time 45 min): 0.448 µmol/L
NTBI (free non transferrin bound iron) ([2]; time 60 min): 0.311 µmol/L
NTBI (free non transferrin bound iron) ([2]; time 75 min): 1.191 µmol/L
NTBI (free non transferrin bound iron) ([2]; time 90 min): 0.084 µmol/L
NTBI (free non transferrin bound iron) ([2]; time 105 min): 0.806 µmol/L
NTBI (free non transferrin bound iron) ([2]; time 120 min): 0.339 µmol/L
increase in transferrin saturation ([3]; after 2 hours): approximately 45%
transferrin saturation (absolute) ([3]; after two hours): approximately 75%
Transferrin saturation ([3]; at the time of administration): approximately 30%
free iron (NTBI) ([3]; within two hours, from 0): 6.7 µmol/L
